Earlier results in US20200237920A1, “STABLE INJECTABLE PHARMACEUTICAL COMPOSITION OF NEUROKININ 1 RECEPTOR ANTAGONIST AND PROCESS FOR PREPARATION THEREOF” (PHARMATHEN S.A., priority 2012, published 2020).

Key:
[1] = system: serotonin, dopamine or corticosteroid receptors

Row | Compound | affinity for serotonin, dopamine or corticosteroid receptors (in words) [1] | solubility in water (in words)
1 | C[C@@H](O[C@H]1OCCN(Cc2n[nH]c(=O)[nH]2)[C@H]1c1ccc(F)cc1)c1cc(C(F)(F)F)cc(C(F)(F)F)c1 [Aprepitant] | little or no affinity | –
2 | CNC[C@H](O)[C@@H](O)[C@H](O)[C@H](O)CO.CNC[C@H](O)[C@@H](O)[C@H](O)[C@H](O)CO.C[C@@H](O[C@H]1OCCN(Cc2nn(P(=O)(O)O)c(=O)[nH]2)[C@H]1c1ccc(F)cc1)c1cc(C(F)(F)F)cc(C(F)(F)F)c1 [Fosaprepitant Dimeglumine] | – | freely soluble in water
